Reference: PubChem BioAssay AID2060883 (Molecular Pharmacology Branch, DTP, NCI, 2025)
One block for each molecule: values may come before it.

Test system: 843782-103-R-J1-PDC complex spheroid viability
Experiment: Anticancer human tumor 843782-103-R-J1-PDC patient-derived lung adenocarcinoma cell line growth inhibition [RAS]
Settings: for viability, T/C: stronger effect = lower value
Method in brief: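 Tumour cells grown as complex spheroids with HUVEC endothelial cells and mesenchymal stem cells, treated with RAS pathway inhibitor combinations. Each agent spans half-log steps from near clinical Cmax, or 10 microM where Cmax is unknown.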
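Also: viability read after seven days of compound exposure.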

IC50 (curve of first compound, second compound 0.0316 µM): 22.6 nM
IC50 (curve of first compound, second compound 0.1 µM): 17.4 nM
IC50 (curve of first compound, second compound 0.316 µM): 20.1 nM
IC50 (curve of first compound, second compound 1 µM): 7.9 nM
IC50 (curve of first compound, second compound 3.16 µM): 5.68 nM
IC50 (curve of first compound, second compound 10 µM): 0.949 nM
Compound: CC1(C)CCC(Nc2ncc(C(F)(F)F)c(-c3c[nH]c4c(P(C)(C)=O)c(C#N)ccc34)n2)CN1 (stereo unspecified) + C#Cc1c(F)ccc2cc(O)cc(-c3ncc4c(N5CC6CCC(C5)N6)nc(OCC56CCCN5CC(F)C6)nc4c3F)c12
viability, T/C (second compound 0.0316 µM, first compound 0.000949 µM): 102%
viability, T/C (second compound 0.0316 µM, first compound 0.003 µM): 93.6%
viability, T/C (second compound 0.0316 µM, first compound 0.00949 µM): 72.1%
viability, T/C (second compound 0.0316 µM, first compound 0.03 µM): 44.9%
viability, T/C (second compound 0.0316 µM, first compound 0.0949 µM): 21.1%
viability, T/C (second compound 0.0316 µM, first compound 0.3 µM): 22.7%
viability, T/C (second compound 0.1 µM, first compound 0.000949 µM): 103%
viability, T/C (second compound 0.1 µM, first compound 0.003 µM): 88.1%
viability, T/C (second compound 0.1 µM, first compound 0.00949 µM): 58.6%
viability, T/C (second compound 0.1 µM, first compound 0.03 µM): 42.5%
viability, T/C (second compound 0.1 µM, first compound 0.0949 µM): 26.8%
viability, T/C (second compound 0.1 µM, first compound 0.3 µM): 23.1%
viability, T/C (second compound 0.316 µM, first compound 0.000949 µM): 101%
viability, T/C (second compound 0.316 µM, first compound 0.003 µM): 76.2%
viability, T/C (second compound 0.316 µM, first compound 0.00949 µM): 58.1%
viability, T/C (second compound 0.316 µM, first compound 0.03 µM): 51.5%
viability, T/C (second compound 0.316 µM, first compound 0.0949 µM): 25.6%
viability, T/C (second compound 0.316 µM, first compound 0.3 µM): 24.6%
viability, T/C (second compound 1 µM, first compound 0.000949 µM): 88.5%
viability, T/C (second compound 1 µM, first compound 0.003 µM): 69%
viability, T/C (second compound 1 µM, first compound 0.00949 µM): 46.2%
viability, T/C (second compound 1 µM, first compound 0.03 µM): 30.9%
viability, T/C (second compound 1 µM, first compound 0.0949 µM): 26.4%
viability, T/C (second compound 1 µM, first compound 0.3 µM): 20.5%
viability, T/C (second compound 3.16 µM, first compound 0.000949 µM): 61%
viability, T/C (second compound 3.16 µM, first compound 0.003 µM): 57.4%
viability, T/C (second compound 3.16 µM, first compound 0.00949 µM): 44%
viability, T/C (second compound 3.16 µM, first compound 0.03 µM): 29.2%
viability, T/C (second compound 3.16 µM, first compound 0.0949 µM): 24.9%
viability, T/C (second compound 3.16 µM, first compound 0.3 µM): 24.6%
viability, T/C (second compound 10 µM, first compound 0.000949 µM): 46.6%
viability, T/C (second compound 10 µM, first compound 0.003 µM): 44.9%
viability, T/C (second compound 10 µM, first compound 0.00949 µM): 37.4%
viability, T/C (second compound 10 µM, first compound 0.03 µM): 59.2%
viability, T/C (second compound 10 µM, first compound 0.0949 µM): 26%
viability, T/C (second compound 10 µM, first compound 0.3 µM): 21.8%

IC50 (curve of compound): < 31.6 nM
Compound: CC(=O)OC12COC1CC(O)C1(C)C(=O)C(O)C3=C(C)C(OC(=O)C(O)C(NC(=O)OC(C)(C)C)c4ccccc4)CC(O)(C(OC(=O)c4ccccc4)C21)C3(C)C (stereo unspecified)
viability, T/C (compound 0.0316 µM): 3.82% [middle of 4 runs]
viability, T/C (compound 0.1 µM): 4.87% [middle of 4 runs]
viability, T/C (compound 0.316 µM): 5.01% [middle of 4 runs]
viability, T/C (compound 1 µM): 4.69% [middle of 4 runs]
viability, T/C (compound 3.16 µM): 6.26% [middle of 4 runs]
viability, T/C (compound 10 µM): 8.18% [middle of 4 runs]

IC50 (curve of first compound, second compound 0.000949 µM): 18.2 nM
IC50 (curve of first compound, second compound 0.003 µM): 17.4 nM
IC50 (curve of first compound, second compound 0.00949 µM): 22 nM
IC50 (curve of first compound, second compound 0.03 µM): 14.8 nM
IC50 (curve of first compound, second compound 0.0949 µM): 24.3 nM
IC50 (curve of first compound, second compound 0.3 µM): 16.2 nM
Compound: O=C(c1ccc(F)c(F)c1Nc1ccc(I)cc1F)N1CC(O)([C@@H]2CCCCN2)C1 + CCn1c(-c2cccnc2C(C)OC)c2c3cc(ccc31)N1CCOC(CC(NC(=O)C(C(C)C)N(C)C(=O)C3(F)CCN(C(=O)C#CC(C)(C)N(C)C)CC3)C(=O)N3CCCC(N3)C(=O)OCC(C)(C)C2)C1
viability, T/C (second compound 0.000949 µM, first compound 0.00316 µM): 74.1%
viability, T/C (second compound 0.000949 µM, first compound 0.01 µM): 56.1%
viability, T/C (second compound 0.000949 µM, first compound 0.0316 µM): 42.7%
viability, T/C (second compound 0.000949 µM, first compound 0.1 µM): 31.9%
viability, T/C (second compound 0.000949 µM, first compound 0.316 µM): 20.1%
viability, T/C (second compound 0.000949 µM, first compound 1 µM): 11.8%
viability, T/C (second compound 0.003 µM, first compound 0.00316 µM): 72.2%
viability, T/C (second compound 0.003 µM, first compound 0.01 µM): 49.3%
viability, T/C (second compound 0.003 µM, first compound 0.0316 µM): 43.2%
viability, T/C (second compound 0.003 µM, first compound 0.1 µM): 35.1%
viability, T/C (second compound 0.003 µM, first compound 0.316 µM): 20.1%
viability, T/C (second compound 0.003 µM, first compound 1 µM): 9.69%
viability, T/C (second compound 0.00949 µM, first compound 0.00316 µM): 69.7%
viability, T/C (second compound 0.00949 µM, first compound 0.01 µM): 58%
viability, T/C (second compound 0.00949 µM, first compound 0.0316 µM): 47.1%
viability, T/C (second compound 0.00949 µM, first compound 0.1 µM): 30.9%
viability, T/C (second compound 0.00949 µM, first compound 0.316 µM): 19.2%
viability, T/C (second compound 0.00949 µM, first compound 1 µM): 11.9%
viability, T/C (second compound 0.03 µM, first compound 0.00316 µM): 58.6%
viability, T/C (second compound 0.03 µM, first compound 0.01 µM): 58.1%
viability, T/C (second compound 0.03 µM, first compound 0.0316 µM): 38.9%
viability, T/C (second compound 0.03 µM, first compound 0.1 µM): 27.9%
viability, T/C (second compound 0.03 µM, first compound 0.316 µM): 20.1%
viability, T/C (second compound 0.03 µM, first compound 1 µM): 12.3%
viability, T/C (second compound 0.0949 µM, first compound 0.00316 µM): 75%
viability, T/C (second compound 0.0949 µM, first compound 0.01 µM): 61.4%
viability, T/C (second compound 0.0949 µM, first compound 0.0316 µM): 43.7%
viability, T/C (second compound 0.0949 µM, first compound 0.1 µM): 36.5%
viability, T/C (second compound 0.0949 µM, first compound 0.316 µM): 22.9%
viability, T/C (second compound 0.0949 µM, first compound 1 µM): 11.7%
viability, T/C (second compound 0.3 µM, first compound 0.00316 µM): 62.9%
viability, T/C (second compound 0.3 µM, first compound 0.01 µM): 59.7%
viability, T/C (second compound 0.3 µM, first compound 0.0316 µM): 38.2%
viability, T/C (second compound 0.3 µM, first compound 0.1 µM): 26.8%
viability, T/C (second compound 0.3 µM, first compound 0.316 µM): 23.2%
viability, T/C (second compound 0.3 µM, first compound 1 µM): 13.9%
